Legend:
B cells = assay: Co-culture of B cells isolated from PBMC with hMSC and ODN, IgM in supernatant by ELISA; assay type: cell-based; settings: screening of 20 types of chemicals treated to human MSC
Procedure: Human mesenchymal stern cells (MSC) were obtained from hone marrow (BM) cells of human tibiae and femurs. BM cells were cultured in α-MEM medium including 10% fetal bovine serum (FBS), 2 mM L-glutamine, and penicillin/streptomycin under a condition of 37° C. and 5% CO2. Non-adherent cells were removed on day 1, and adhered cells were cultured with medium replenishment every 3 days and used between day 17 and day 20.
As substances used for the pretreatment condition for hMSC, PMA (10 ng/mL, 24-hour treatment, Sigma), I3A (10 μg/mL, 24-hour treatment, Sigma), and IFN-γ (10 ng/mL, 7-day treatment, Sigma) were used.
IFN-γ measurement'as performed according to the test method provided by R&D (#DY285-05), and for IgM, the IgM ELISA kit (eBioscience, Vienna, Austria) was used for measurement. […] Finally, the value was measured at 450 nm to 570 nm.
After B cells (1×10^5 cells/well) isolated from peripheral blood mononuclear cells (PBMC) and PMA-treated hMSC (1×10^3 cells/well) were co-cultured for 72 hours with CpG oligodeoxynucleotides (ODN, 5 μg/mL), the level of IgM in the supernatant was measured by ELISA (A in FIG. 1). T cells (1×10^5 cells/well) isolated from PBMC and PMA-treated hMSCs×10^3 cells/well) were co-cultured for 72 hours with phytohemagglutinin (PHA, 5 ug/mL), and the level of IFN-γ in the supernatant was measured by ELISA (B in FIG. 1). […]

MSC [1] = assay: Chemokines of MSC by RT-PCR and ELISA; assay type: cell-based, human; settings: MSC treated with PMA; mRNA (RT-PCR) and protein (ELISA)
Procedure: Cells were treated with Trypsin-EDTA (Gibco) at […] at a time point when the confluency of 70% to 80% was reached, followed by culturing under a condition of 5% CO2 and 37° C. After 24 hours of material treatment, the cells were recovered, and the total RNA was isolated from the cells using the TRIZOL reagent (invitrogen, MD, USA), and the total RNA was quantified by absorbance measurement at 260 nm.
A total RNA concentration of 0.3 μg was used, and it was synthesized at 42° C. for 1 hour and at 95° C. for 5 minutes. Polymerase chain reaction was performed using 3 μL of synthesized cDNA and 10 pM of a primer. […]
(§1) The expression levels of mRNA for FasL, PD-L1, PD-L2, ICAM1, VCAM1, β-actin, IFN-γ, TNF-α, IL-12, COX-2, iNOS, IDO, TGF-β, CCL2, CCL3, CXCL10, and CXCL12 were analyzed by quantitative real-time PCR (qPCR). The relative mRNA amount of each sample was calculated based on a threshold cycle (Ct) compared to the threshold cycle (Ct) of β-actin, which is a housekeeping gene.
The chemokines of MSC were analyzed by RT-PCR (A in FIG. 2) and ELISA (B in FIG. 2) at mRNA and protein levels, respectively. […] The migration of B cells with respect to MSC was measured using a transwell, MSCs were seeded in the lower well, and B cells were seeded in the upper well. […]

PKC-α and δ = assay: PKC signaling in MSC by western blot; assay type: cell-based, human; settings: PMA treated to MSC, 24 hours
Procedure: Cells were lysed in ice using a cell lysis buffer (Cell Signaling Technology, Danvers, Mass., USA). Proteins were obtained by centrifugation at 12,000 rpm for 15 minutes at 4° C. The proteins were quantified using the Bradford reagent, and electrophoresis was performed at 75V with 20 μg of the proteins by using an SDS-polyacrylamide gel. After the SDS-polyacrylamide gel was transferred to a PVDF membrane at 95V for 90 minutes, 5% nonfat dry milk was added to TBS (TTBS) including 0.5% Tween 20 and blocked for 1 hour. After blocking, the membrane was placed in 5% BSA/TTBS including a primary antibody and shaken at 4° C. for one day. […] After washing the membrane with TTBS and reacting the membrane with enhanced chemiluminescence (ECL, Amersham Pharmacia Biotech, Piscataway, N.J., USA), the degree of protein expression was measured using a ChemiDoc™ XRS+ machine (Bio-Rad, CA, USA).
PMA was treated to MSC, and after 24 hours, proteins were obtained, and signaling was analyzed through western blot (A in FIG. 4). A PKC inhibitor (Go6983, 1 ug/mL) was pre-treated to MSC for 1 hour, and after PMA was treated, proteins were obtained after 24 hours, and signaling was analyzed through western blot (B in FIG. 4). […] Then, the level of IgM in the supernatant was measured by ELISA (C in FIG. 4). The mRNA levels of the surface molecules of the PMA-treated MSCs were analyzed via RT-PCR (D in FIG. 4). […]

MSC [2] = assay: Surface molecules of PMA-treated MSC by RT-PCR and FACS; assay type: cell-based, human; settings: PMA treated to MSC, RT-PCR
Procedure: as §1
PMA was treated to MSC, and after 24 hours, proteins were obtained, and signaling was analyzed through western blot (A in FIG. 4). A PKC inhibitor (Go6983, 1 ug/mL) was pre-treated to MSC for 1 hour, and after PMA was treated, proteins were obtained after 24 hours, and signaling was analyzed through western blot (B in FIG. 4). After MSC was pretreated with the PKC inhibitor (Go6983, 1 ug/mL) for 1 hour and PMA was treated, B cells (1×10^5 cells/well) that were isolated from PBMC and PMA-treated MSCs (1×10^3 cells/well) were co-cultured with ODN for 72 hours. Then, the level of IgM in the supernatant was measured by ELISA (C in FIG. 4). The mRNA levels of the surface molecules of the PMA-treated MSCs were analyzed via RT-PCR (D in FIG. 4). The expressions of PD-L1 of the PMA-treated MSC and PD1 of the B cells were analyzed through FACS (E in FIG. 4). After treating the FasL blocking Ab (10 ug/mL) (F) and the PD-L1 blocking Ab (10 ug/mL) (G) to MSCs and adding PMA, MSCs and B cells were cultured with ODN for 72 hours, and then, the IgM level in the supernatant was measured by ELISA. The PMA-treated MSCs were treated with siRNA to confirm […] at the mRNA level via RT-PCR. After the PMA-treated MSCs, in which PD-L1 was knocked down, and B cells were cultured with ODN for 72 hours, the IgM level in the supernatant was measured by ELISA (H in FIG. 4). PMA was treated to the MSCs, and after 24 hours, the total RNA was obtained, and soluble factors were analyzed via RT-PCR (I in FIG. 4).

SMILES: CCCCCCCCCCCCCC(=O)O[C@@H]1[C@@H](C)[C@@]2(O)[C@@H](C=C(CO)C[C@]3(O)C(=O)C(C)=C[C@@H]23)[C@@H]2C(C)(C)[C@]12OC(C)=O [PMA, phorbol myristate acetate]
- human B cell function (B cells): inhibits
- expression of CXCL10 in MSC (MSC [1]): increased
- PKC-α and δ in the cytoplasm of MSC (PKC-α and δ): transferred to the cell membrane
- phosphorylation of ERK in MSC (PKC-α and δ): increased
- FasL expression in MSC (MSC [2]): expressed
- PD-L2 expression in MSC (MSC [2]): expressed
- PD-L1 expression in MSC (MSC [2]; FACS): expressed
